These results are taken from patent US4177269A, “Novel 17-esters of 17α-hydroxy gestogens, compositions containing such compounds, processes for their preparation and methods of treatment therewith” (Aktiebolaget Leo, priority 1976, dated 1979).

A short description of data set [1]: Walker carcinosarcoma 256 tumour growth inhibition in rats. The format is in vivo, Sprague-Dawley rats. More on the design: ED50: unit: mg/kg. As to conditions: rat, in vivo, po, daily p.o. for 5 days; for LD50: dose causing 50 percent lethality; for selectivity ratio: read-out: T.I. (LD50/ED50). An excerpt: (§1) LD50 is the dose that causes a 50 percent lethality of the animals, and ED50 is the dose that causes a 50 percent reduction of tumour size.
(§2) The experimental design and the interpretation of the results are in accordance with the standards set by the CCNSC (Cancer Chemotherpy Reports, January 1959 and December 1962).
(§3) Walker carcinosarcoma 256.
(§4) Experimental animals: Sprague-Dawley rats.
(§5) Tumour implant: Tumour pieces with 2-4 mm diameter, sub-
(§6) Therapy: Daily p.o. administration for 5 days starting on
(§7) the day following implantation.
(§8) Termination: The animals are killed on the 9th day.
(§9) Evaluation: Weights of tumours of test animals are compared
(§10) with those of control animals.

Data set [2] deals with Walker carcinosarcoma 256. Described as above. Set-up: ED50: unit: mg/kg. The format is in vivo, Sprague-Dawley rats. The conditions noted are these: daily p.o. for 5 days; for ED50: dose causing 50 percent reduction of tumour size, killed 9th day; for antitumour activity: result in words.
From the text: as §1, §2, §3, §4, §5, §6, §7, §8, §9, §10

For data set [3], the target named is T1, rabbit uterus cytosol progesterone receptor (Oryctolagus cuniculus, UniProt P06186).
T1 construct: One ml portions of the supernatant (rabbit uterus cytosol) were pipetted into small centrifuge tubes of glass; from tissue; host or cells: uterus cytosol (105,000×g supernatant) of female rabbits pretreated with polyestradiol phosphate
T1 sequence (P06186 1-930): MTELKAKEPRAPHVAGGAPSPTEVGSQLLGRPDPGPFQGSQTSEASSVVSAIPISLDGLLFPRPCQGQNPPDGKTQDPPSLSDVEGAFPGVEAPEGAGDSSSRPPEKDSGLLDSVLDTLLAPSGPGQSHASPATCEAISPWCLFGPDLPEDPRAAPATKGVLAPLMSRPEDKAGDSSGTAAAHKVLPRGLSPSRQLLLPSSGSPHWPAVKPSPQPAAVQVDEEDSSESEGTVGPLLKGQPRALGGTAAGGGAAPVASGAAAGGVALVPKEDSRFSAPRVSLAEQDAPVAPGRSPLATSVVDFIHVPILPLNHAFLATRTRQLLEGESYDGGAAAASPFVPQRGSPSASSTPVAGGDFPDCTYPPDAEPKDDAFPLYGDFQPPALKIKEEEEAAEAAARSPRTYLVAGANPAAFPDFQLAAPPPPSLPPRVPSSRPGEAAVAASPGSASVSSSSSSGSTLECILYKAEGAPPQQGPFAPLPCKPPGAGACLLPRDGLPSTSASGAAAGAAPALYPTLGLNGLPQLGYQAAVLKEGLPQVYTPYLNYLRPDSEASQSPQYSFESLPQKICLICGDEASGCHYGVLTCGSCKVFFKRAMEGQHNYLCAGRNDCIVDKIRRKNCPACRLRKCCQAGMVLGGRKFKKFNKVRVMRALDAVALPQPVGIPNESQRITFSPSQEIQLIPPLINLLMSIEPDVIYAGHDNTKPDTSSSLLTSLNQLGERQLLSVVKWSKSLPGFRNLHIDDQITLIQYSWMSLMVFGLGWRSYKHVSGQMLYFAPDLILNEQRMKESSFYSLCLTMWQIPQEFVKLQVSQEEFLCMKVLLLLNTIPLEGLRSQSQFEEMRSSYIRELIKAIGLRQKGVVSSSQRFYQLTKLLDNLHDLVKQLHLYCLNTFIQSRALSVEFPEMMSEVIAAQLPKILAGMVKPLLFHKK
Briefly: Relative affinity to rabbit uterus cytosol progesterone receptor (3H-progesterone competition). As to conditions: compared to progesterone; 50% competition with 3H-progesterone; 16-18 hours at 4° C. The format is binding. As to the method: This example illustrates the compound's relative affinity to rabbit uterus cytosol progesterone receptor compared with progesterone. The method used for this purpose is a modification of methods already described by Kontula, K. et al. (Acta Endocrinol. 78 (1975) 574) and Terenius, L. (Steroids 23 (1974) 909) among others.
Female rabbits (3-4 pounds) from Knut Larsen, Uddevalla, Sweden, were injected i.m. with 1 mg Estradurin (polyestradiol phosphate, 1 mg/ml saline, AB Leo, Sweden). After one week, the animals were killed and the uteri were immediately removed, chilled and cut free from connective tissues. All the following operations were performed at 0°-4° C. The uteri were cut into small pieces and washed several times with 3 vol. of buffer at pH 7.4 containing 50 MM TRIS-HCl, 1.5 mM EDTA, 3 mM NaN3, 2 mM dithiothreitol, and 25% glycerol (by vol.). The tissue was homogenized in the same buffer (3 vol.) with four 15-s bursts at rheostat setting 36-37 of an Ultra Turrax (Janke and Kunkel KG, Staufen, The Federal Republic of Germany). The homogenate was centifuged in a Sorvall GLC-2 centrifuge for 15 min at 600×g. The supernatanate was recentrifuged at 105,000×g for 60 min in a Beckman ultracentrifuge model LB-65-B with rotor SW 56.
One ml portions of the supernatant (rabbit uterus cytosol) were pipetted into small centrifuge tubes of glass and were kept at -70° C. until used. The protein content was determined by the method of Lowry (J. Biol. Chem. 193 (1951) 265).
10.0 mg of each compound was dissolved in 10.0 ml 99.5% ethanol. 100 μl of this standard solution was diluted to 5.0 ml ethanol/glycerol 1:1 (v/v). The ethanol was evaporated by blowing air at 40° C. on the solution. The volume was then adjusted to 5.0 ml by adding buffer without glycerol.
The compounds were diluted with glycerol/buffer 1:1 to final concentrations between 10^-8 -10^-5 M in total 300 μl incubation media. 100 μl of each compound and of each dilution were incubated in small centrifuge tubes (2 ml) together with 100 μl (10 pg) ^3 H-progesterone (1,2,6,7-3H-progesterone, 47.8 Ci/mMol, The Radiochemical Centre, Amersham, England) and 100 μl cytosol adjusted with buffer to a final concentration of about […]. The incubations were carried out for 16-18 hours at 4° C.
The separation of bound from free radioactivity was carried out at 0° C. using the dextran coated charcoal technique (DCC). To each incubation tube was added 0.5 ml DCC-suspension (0.05% dextran-70, Pharmacia, Uppsala, Sweden and 0.5% Norit A, Sigma, Saint Louis, Missouri, U.S.A.) The tubes were agitated 2-3 times during 10 minutes whereupon they were centrifuged at 100×g for five minutes. The supernatantes were decanted directly into Scintillation vials (polyethene, Packard) containing 10 ml InstaGel (Packard). The radioactivity was counted in a Philip's liquid scintillation spectrometer Model PW 4510/00 with external standard and automatic quenching correction.
To incubation tubes were added 100 μl cytosol, 100 μl ^3 H-progesterone (10 pg) and 100 μl of different dilutions of non-radioactive progesterone in glycerol/buffer 1:1 ranging from 0-10^4 pg/100 μl. The tubes were incubated parallel with the compounds described above. The radioactivity was calculated by substracting the counted radioactivity in the incubation tubes with the radioactivity counted in incubations tubes in which the cytosol was replaced with buffer (100 μl).
The concentration of non-radioactive progesterone [P]i which competes for 50% of bound radioactive progesterone was calculated from the standard curve constructed [B] i/[B] o=0.5 where [B]i is the bound radioactivity at different concentrations of non-radioactive progesterone and [B]o is the bound radioactivity at progesterone concentration zero.
In the same manner, curves were constructed for each compound X and the concentration for each compound which competes for 50% with bound ^3 H-progesterone ([X]50) was calculated. […]

Data set [4] is described as follows: Hepatome AH 130 tumour growth inhibition in rats. The format is in vivo, Sprague-Dawley rats. Set-up: ED50: unit not given here. As to conditions: rat, in vivo, ip, one i.p. injection; for LD50: dose causing 50 percent lethality, column head not given; for selectivity ratio: read-out: T.I. (LD50/ED50).
From the text: as §1, §2, §4
(§11) Tumour implant: 5 × 10^6 tumour cells i.p.
(§12) Therapy: One injection i.p. on the day following implanta-
(§13) Termination: The animals are killed on the 8th day.
as §9, §10

For data set [5], the system named is Hepatome AH 130. Description: Hepatome AH 130 tumour growth inhibition in rats. It is filed as in vivo, Sprague-Dawley rats. Set-up: ED50: unit not given here. The conditions noted are these: one i.p. injection, dose causing 50 percent reduction of tumour size, killed 8th day.
From the text: as §1, §2, §4, §11, §12, §13, §9, §10

In data set [6] the test system is Ehrlich ascites tumour, ELD hyperdiploid. Description: Ehrlich ascites tumour, ELD hyperdiploid (46 chromosomes), growth inhibition in mice. The conditions noted are these: one i.p. injection; for Tumour weight Treated/Control: 8th day; for antitumour activity: result in words. It is filed as in vivo, SPF NMRI mice.
From the text: as §2
Ehrlich ascites tumour, ELD hyperdiploid
Experimental animals: SPF NMRI mice.
Tumour implant: 2 × 10^6 tumour cells i.p.
as §12, §13
Evaluation: Weight of tumours of test animals compared with
those of control animals.

The term LD50 denotes the dose expected to kill half of the subjects tested. Consider `CC(=O)[C@@]1(OC(=O)COC(=O)Cc2ccc(N(CCCl)CCCl)cc2)CC[C@H]2[C@@H]3CCC4=CC(=O)CC[C@]4(C)[C@H]3CC[C@@]21C` [3:1, 17α-/4-(N,N-bis(2-chloroethyl)amino)phenylacetoxyacetoxy/pregn-4-ene-3,20-dione], for which, in data set [1], the LD50 is greater than 250 mg/kg and the selectivity ratio is greater than 31. In addition, the ED50 in data set [2] is reported as 8. Further, the “relative binding affinity (RBA)” value in data set [3] came out at 6.6%. Further, in data set [4], the LD50 was greater than 250 mg/kg and the selectivity ratio was greater than 83. In addition, the ED50 in data set [5] is given as 3. Besides, in data set [6] (50 mg/kg), the Mortality was 1/12 and the “Tumour weight Treated/Control” value was determined as 3%.
With `CC(=O)[C@@]1(OC(=O)COC(=O)CCCc2ccc(N(CCCl)CCCl)cc2)CC[C@H]2[C@@H]3CCC4=CC(=O)CC[C@]4(C)[C@H]3CC[C@@]21C` [Compound 3:2, 17α-/4-(4-(N,N-bis(2-chloroethyl)amino)phenyl)butanoyloxyacetoxy/pregn-4-ene-3,20-dione], in data set [1], the LD50 is greater than 250 mg/kg and the selectivity ratio is greater than 83. Also, the ED50 in data set [2] came to 3. For the same compound, in data set [3], the “relative binding affinity (RBA)” value worked out at 0.7%. Further, in data set [4], the LD50 is greater than 1000 mg/kg and the selectivity ratio is greater than 10. Further, the ED50 in data set [5] is 100. In data set [6] (50 mg/kg), the Mortality is recorded as 0/12 and the “Tumour weight Treated/Control” value is on record as 1%.
As for `CC(=O)[C@@]1(OC(=O)CCCOC(=O)CCCc2ccc(N(CCCl)CCCl)cc2)CC[C@H]2[C@@H]3CCC4=CC(=O)CC[C@]4(C)[C@H]3CC[C@@]21C` [Compound 3:3], the results for the LD50 in data set [1] and in data set [4] were 40 mg/kg and 180 mg/kg, respectively. In addition, the results for the selectivity ratio in data set [1] and in data set [4] were 20 and 30, respectively. For the same compound, the ED50 in data set [2] is 2; in data set [5], 6. In data set [3], the “relative binding affinity (RBA)” value is given as 0.6%. Besides, in data set [6], the antitumour activity entry is “exhibit antitumour activity”.
As to `CC(=O)[C@@]1(OC(=O)CNC(=O)CCCc2ccc(N(CCCl)CCCl)cc2)CC[C@H]2[C@@H]3CCC4=CC(=O)CC[C@]4(C)[C@H]3CC[C@@]21C` [Compound 4:1, 17α-/4-(4-(N,N-bis(2-chloroethyl)amino)phenyl)butanoylaminoacetoxy/pregn-4-ene-3,20-dione], the antitumour activity entry in data set [2] and in data set [6] was “exhibit antitumour activity” each time. In addition, in data set [3], the “relative binding affinity (RBA)” value is listed as 1.1%. The compound also displayed an LD50 in data set [4] greater than 250 mg/kg. Further, the selectivity ratio in data set [4] was greater than 2. Moreover, the ED50 in data set [5] worked out at 125.
Turning to `CC(=O)[C@@]1(OC(=O)COC(=O)Nc2ccc(N(CCCl)CCCl)cc2)CC[C@H]2[C@@H]3CCC4=CC(=O)CC[C@]4(C)[C@H]3CC[C@@]21C` [Compound 5:1, 17α-/4-(N,N-bis(2-chloroethyl)amino)phenylcarbamoyloxyacetoxy/pregn-4-ene-3,20-dione], in data set [2], the antitumour activity result is “exhibit antitumour activity”. The “relative binding affinity (RBA)” value in data set [3] worked out at 15.8%. In data set [4], the LD50 was greater than 250 mg/kg and the selectivity ratio was greater than 8. The ED50 in data set [5] is given as 30. In data set [6] (1000 mg/kg), the Mortality is listed as 0/12 and the “Tumour weight Treated/Control” value worked out at 1%. The antitumour activity entry in data set [6] was “exhibit antitumour activity”.
